# “Also recorded” adds a separate entry of the source.
# How the values were obtained:
# [1] = Acute toxicity in vivo in CD-1 female mice; details: 3, 10 and 30 mg/kg i.v. or i.p.
# Description: We have evaluated in vivo the acute toxicity of BN210. 30 CD-1 female mice (Charles River Italia s.r.l., Via Indipendenza, 11-23885 CALCO (Lecco)), weighing 21.8-22.9 g, were divided in 6 groups, each of 5 animals, and housed in Makrolon cages (type III) at a room temperature of 22±3° C. and at a relative humidity of 55±15%. Air changes were 180-220/hour. Three doses of BN210, dissolved in phosphate buffered saline, were tested: 3, 10 and 30 mg/kg given intravenously (i.v., via the tail vain) or intraperitoneally (i.p.). BN210 concentrations in the formulates were 0.155, 0.517 and 1.551 mg/ml, respectively. Mice were observed daily, twice/day, for the appearance of toxicity signs during the 14 days following drug administration. The parameters commonly checked in the Irvin test were taken into consideration. […] After 14 days of observation, all mice were sacrificed and dissected for gross pathology examination. Any sign or pathological alterations were the subject of close scrutiny during the necropsy.
# soluble HRP-3 = soluble HRP-3 (Homo sapiens, UniProt Q9Y3E1); assay: In vitro anti-angiogenic activity (data not shown); format: cell-based
# GI-LI-N cells = details: 48 h
# HRP-3 [2] = target: T1, HRP-3 (Homo sapiens, UniProt Q9Y3E1); assay: HRP-3 induced sprouting of HUVEC blocked by single strand oligonucleotides; format: cell-based; details: recombinant HRP-3 plus synthetic oligo
# T1 construct: The HRP-3 coding region was cloned into the pET30 vector using EcoRI and NdeI as restriction sites; made in house; host or cells: E. coli BL21
# Description: We tried to twice block the protein effect of human endothelial cells sprouting with a modified single strand oligonucleotides. In samples with recombinant protein, and synthetic oligos, SEQ ID NO. 16, 17, and 18 the number of sprouted spheroids was reduced as compared to samples with recombinant protein (FIG. 19).
# [3] = system: GI-LI-N neuroblastoma xenograft; assay: Orthotopic neuroblastoma (GI-LI-N) xenograft survival in nude mice; format: in vivo; details: VCR 1 mg/kg i.v. once a week for 5 weeks
# Description: Mice were housed under specific pathogen-free conditions. The in vivo experiment was performed using five week old female athymic (Nude-nu) mice. Mice were anaesthetized with a mixture of xylazine (10 mg/kg) and ketamine (90 mg/kg) (Imalgene 1000, Merial Italia S.p.A., Milan, Italy), subjected to laparatomy, and orthotopically injected with the neuroblastoma (NB) cell line, GI-LI-N (1.5×10^6 cells in 10 μL of saline solution/mouse), in the capsule of the left adrenal gland, as previously reported (Pastorino F. et al., Cancer Res 63, 2003; Pastorino F. et al., Clin Cancer Res 2008). No mortality was observed following tumour cells implantation. NB tumours were allowed to grow from the injected cells for 22 days, then animals were randomly divided in 3 groups. One group was treated i.v., once a week for 5 weeks, with 1 mg/kg of vincristine (VCR, 5 administration in total). A second group of animals was treated with a combination of VCR (i.v. injection of 1 mg/kg, once a week for 5 weeks, 5 administration in total) and BN210 (i.p. injection of 7 mg/kg, 5 days/week, 20 administrations in total). Negative control mice were treated with HEPES-buffered saline. The significance of the differences between experimental groups (n=8 mice/group) in the survival experiments was determined by Kaplan-Meier curves by the use of Chi square log-rank test. […]
# HUVEC cells [4] = assay: HUVEC sprouting test; format: cell-based, human
# Description: (§1) While no effects on the proliferation on BAEC and HUVEC cells were found, HRP-3 is able to induce HUVEC sprouting after 24 hours of stimulation. As shown in FIGS. 3 and 4 the HRP-3 can induce sprouting in HUVEC cells in a dose dependent manner. In FIG. 4 we have shown the negative control and the positive control with VEGF at 60 ng/ml. […] To be sure of ours results, experiments have been made in blind too.
# Furthermore to confirm VEGF-independent angiogenic activity we performed another sprouting test with Avastin, anti-VEGF antibody in presence of VEGF and our protein.
# HRP-3 [5] = target: T1, HRP-3; assay: 3T3 migration in vitro assay: prevention of HRP-3 function by DNA duplexes; format: cell-based, mouse
# Description: All the four DNA duplexes were tested in our 3T3 migration in vitro assay to see if they were able to prevent HRP-3 function by binding its PWWP domain (FIG. 13). […] The third column on the left is the negative control.
# HUVEC [6] = assay: Tube formation assay in Matrigel; format: cell-based, human; details: after 24 hours, preliminary result
# [7] = system: SH-SY5 neuroblastoma cells; assay: Proliferation assay of SH-SY5 cells; format: cell-based, human; details: 100 ng/mL HRP-3, 24 and 48 h
# Description: Angiogenesis plays a key role during neural differentiation, exerting a trophic activity on both neurons and glia. A variety of angiogenic factors have been identified so far to play an important role in the induction of angiogenesis in NBs, including vascular endothelial growth factor (VEGF). Proliferation assay of SH-SY5 and NCS-34 cells in presence of increasing amounts of the protein were performed. These assays allow the definition of a anti-proliferatory effect of the protein only on SHSY, which at 100 ng/mL is able to prevent 25% of the SH-SY5 proliferation induced at 24 and 48 h by 5% FBS.
# BAEC = assay: Proliferation of endothelial primary cells (BAEC); format: cell-based
# Description: as §1
# 3T3 cells [8] = assay: 3T3 anchorage independent growth; format: cell-based, mouse
# 3T3 cells [9] = assay: 3T3 proliferation assay; format: cell-based, mouse
# Description: (§2) In analogy with the reported HDGF activity on NIH 3T3 fibroblast, we decided to test the HRP-3 activity on these cells to develop a test able to report any interfering activity by a ligand able to bind the PWWP domain. Migration and proliferation assay of 3T3 cells in presence of increasing amounts of the protein were performed. These assays allow the definition of a strong anti-migratory effect of the HRP-3 protein, which at 30 ng/mL is able to prevent 50% of the 3T3 migration induced at 24 h by 5% FBS. This test was validated and is currently well reproducible, FIG. 2.
# HUVEC [10] = assay: Proliferation of endothelial primary cells (HUVEC); format: cell-based, human
# Description: as §1
# NIH 3T3 fibroblasts = assay: 3T3 migration assay in presence of increasing amounts of HRP-3; format: cell-based, mouse; details: 30 ng/mL HRP-3, 24 h
# Description: as §2
# HUVEC cells [11] = assay: mRNA expression in HUVEC by Real Time PCR; format: cell-based, human
# Description: To understand the molecular basis of this stimulation, we studied mRNA expression of HRP-3 in HUVEC cell line by Real Time PCR. […] To understand if VEGF or VEGFR-2 was involved with the HRP-3 induced mechanism, we stimulated HUVEC cells with our HRP-3 and investigated mRNA levels of VEGF, VEGFR-2, HRP-3 and HDGF. The expression of those genes is not changed by HRP-3, FIGS. 5 and 6.
# HUVEC [12] = assay: HUVEC migration assay in presence of increasing amounts of HRP-3; format: cell-based, human; details: 100 ng/ml HRP-3, 5 and 16 h
# Description: Migration assay of HUVEC in presence of increasing amounts of the protein was performed (FIG. 9). These assay allows the definition of a anti-migratory effect of the protein on human endothelial cells in a dose-dependent manner, which at 100 ng/ml is able to prevent about 80% of the migration induced at 5 and 16 h by 5% FBS.
# T1 sequence (Q9Y3E1 whole entry): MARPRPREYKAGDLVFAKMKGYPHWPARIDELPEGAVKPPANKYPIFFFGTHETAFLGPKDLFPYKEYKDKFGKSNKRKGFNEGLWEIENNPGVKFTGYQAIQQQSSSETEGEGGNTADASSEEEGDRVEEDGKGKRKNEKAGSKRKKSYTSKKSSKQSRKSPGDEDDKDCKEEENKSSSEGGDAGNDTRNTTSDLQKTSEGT
# soluble HRP-3, sequence (Q9Y3E1 whole entry): as above
compound,measurement,setting,value
"5′-PEG (40 KDa)-(NH)-T*AC AACACCCACAAAAAAUTTGTGGGTGTT GTiA-3' (BTACAACACCCACAAAAAAUTTGTGGGTGTTGTA; 5'-PEG 40 kDa amino linker, 3' inverted nucleotide, hairpin, further chemistry not given here) [BN210]",clinical or behavioural signs of toxicity,[1]; 14 days observation,no signs of clinical or behavioural alterations
same,gross pathology at necropsy,[1]; after 14 days,No macroscopic signs or pathological changes
same,anti-angiogenic activity in vitro,soluble HRP-3,anti-angiogenic activity
same,effect of addition on vincristine treatment,GI-LI-N cells; 250 nM BN210 with vincristine 0.15 to 5 nM,did not enhance or inhibit
"5′-TACAACACCCACAAAAAATTTGTGGGTGTTGTA-3' (TACAACACCCACAAAAAATTTGTGGGTGTTGTA; DNA, backbone and methylation of C not given here) [SEQ ID NO. 16]",number of sprouted HUVEC spheroids versus recombinant protein alone,HRP-3 [2],can block; also recorded: reduced
"5′-TAC AAC ACC CAC AAA-[CH2CH2O]5-TTT GTG GGT GTT GTA-[CH2CH2O]5H-3' (TACAACACCCACAAABTTTGTGGGTGTTGTAB; PEG5 spacers, chemistry not fully specified) [SEQ ID NO. 18]",number of sprouted HUVEC spheroids versus recombinant protein alone,HRP-3 [2],reduced
"5′-UACAACACCCACAAAAAAUUUGUGGGUGUUGUA-3' (2'-OMe) (UACAACACCCACAAAAAAUUUGUGGGUGUUGUA; all 2'-O-methyl, backbone not given here) [SEQ ID NO. 17]",number of sprouted HUVEC spheroids versus recombinant protein alone,HRP-3 [2],reduced
"CC[C@]1(O)C[C@H]2CN(CCc3c([nH]c4ccccc34)[C@@](C(=O)OC)(c3cc4c(cc3OC)N(C=O)[C@H]3[C@@](O)(C(=O)OC)[C@H](OC(C)=O)[C@]5(CC)C=CCN6CC[C@]43[C@@H]65)C2)C1 [vincristine, reference compound]",life span compared to negative control mice,[3],did not show any increase of their life span
same,concentration inhibiting proliferation of GI-LI-N cells,GI-LI-N cells; MTT,2.5 to 5 nM
Avastin: anti-VEGF antibody,effect on VEGF-mediated HUVEC sprouting,HUVEC cells [4]; in presence of VEGF,blocks HUVEC sprouting VEGF-mediated
"Duplex 2: derived DNA double strand with base changes versus Duplex 1, to test importance of sequence for binding (chain 1 TACAACATTCACAAA; chain 2 TTTGTGAATGTTGTA; chain 1: DNA, backbone and methylation of C not given here; chain 2: DNA, backbone not given here)",activity in abolishing the anti-migratory effect of HRP-3 on 3T3 cells,HRP-3 [5],modest activity
"Duplex 3: derived DNA double strand designed to test different molecular shapes (chain 1 TACAACAAACCCACAAA; chain 2 TTTGTGGGTGTTGTA; chain 1: DNA, backbone and methylation of C not given here; chain 2: DNA, backbone not given here)",activity in abolishing the anti-migratory effect of HRP-3 on 3T3 cells,HRP-3 [5],no activity
"Duplex 4: derived DNA double strand with base changes versus Duplex 1, to test importance of sequence for binding (chain 1 CACACACACACACAC; chain 2 GTGTGTGTGTGTGTG; chain 1: DNA, backbone and methylation of C not given here; chain 2: DNA, backbone not given here)",activity in abolishing the anti-migratory effect of HRP-3 on 3T3 cells,HRP-3 [5],no activity
"HRP-3: recombinant HDGF Related Protein 3 with PWWP domain, cDNA from human cells, produced in E. Coli",vessel-like network of HUVEC in tube formation assay,HUVEC [6],able to maintain vessel-like network of HUVEC
same,prevention of SH-SY5 proliferation induced by 5% FBS,[7],25%
same,effect on proliferation of BAEC,BAEC,no effects
same,concentration that blocks 3T3 anchorage independent growth,3T3 cells [8],0.1 ng/mL
same,concentration that blocks 3T3 proliferation,3T3 cells [9],0.1 ng/mL
same,effect on proliferation of HUVEC,HUVEC [10],no effects
same,concentration stimulating sprouting on HUVEC cells,HUVEC cells [4]; 24 hours of stimulation,above 100 ng/ml
same,prevention of 3T3 migration induced by 5% FBS,NIH 3T3 fibroblasts,50%
same,"mRNA levels of VEGF, VEGFR-2, HRP-3 and HDGF after HRP-3 stimulation",HUVEC cells [11]; HUVEC stimulated with HRP-3,not changed
same,prevention of HUVEC migration induced by 5% FBS,HUVEC [12],about 80%
VEGF,HRP-3 mRNA levels after VEGF treatment,"HUVEC cells [11]; HUVEC treated with 60 ng/ml VEGF, versus negative control",no significant difference
